Experimental data published in EP0797564B1, “LIGNANS, A PROCESS FOR THEIR PRODUCTION AND PHARMACEUTICAL COMPOSITIONS AND USES THEREOF” (KANOLDT ARZNEIMITTEL GMBH, priority 1995, dated 1997).

What was measured:
[1] = biological target: T1, SHBG (Homo sapiens, UniProt P04278); experiment: Concentration dependence: remaining SHBG activity to 5α-dihydrotestosterone (DHT) with varying concentrations of the compounds; format: binding; details: DHT concentration of 9.6 nM
T1 sequence (P04278 30-402): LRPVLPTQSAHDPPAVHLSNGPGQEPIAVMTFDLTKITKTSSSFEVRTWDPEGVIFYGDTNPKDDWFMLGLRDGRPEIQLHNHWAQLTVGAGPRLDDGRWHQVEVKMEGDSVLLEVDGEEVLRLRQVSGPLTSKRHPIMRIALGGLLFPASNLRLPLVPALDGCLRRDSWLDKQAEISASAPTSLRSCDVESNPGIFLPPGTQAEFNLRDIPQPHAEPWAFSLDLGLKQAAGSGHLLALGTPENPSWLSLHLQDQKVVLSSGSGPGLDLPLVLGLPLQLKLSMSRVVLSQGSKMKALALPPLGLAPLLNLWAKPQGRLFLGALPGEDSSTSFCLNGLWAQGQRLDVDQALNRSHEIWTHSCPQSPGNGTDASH
Method: In order to determine the strength of the interaction of the compounds produced according to the present invention, tests were carried out investigating remaining SHBG activity to 5α-dihydrotestosterone (DHT) with varying concentrations of the compounds, DHT being a natural hormone that binds with SHBG.

[2] = biological target: T1, SHBG; experiment: Estimation of equilibrium (association) constants Ka inhibitor/SHBG, assuming competitive binding; details: association constant inhibitor/SHBG; Table 3
From the text: With the assumption of competitive binding the estimation of equilibrium constants is possible. Two reactions exist in competition with one another: [drawing 50] [drawing 51]

| SMILES | Remaining SHBG Activity ([1]; @ 6.2*10^-4M compound) [% @ 6.2*10^-4M] | Remaining SHBG Activity ([1]; @ 3.2*10^-4M compound) [% @ 3.2*10^-4M] | Ka [2] [M⁻¹] | Remaining SHBG Activity ([1]; @ 6*10^-4M compound) [% @ 6*10^-4M] |
| --- | --- | --- | --- | --- |
| COc1cc(CC2COC(C)(C)OCC2Cc2ccc(O)c(OC)c2)ccc1O (centres unmarked) [III'a] | 75 |  |  |  |
| COc1cc(CC(CO)C(CO)Cc2ccc(O)c(OC)c2)ccc1O (centres unmarked) [IIIa] |  | 50 | 20000 |  |
| COC(=O)C(Cc1ccc(O)c(OC)c1)C(Cc1ccc(O)c(OC)c1)C(=O)OC (centres unmarked) [IIa] |  |  | 60000 | 30 |
